Experimental data reported in publication PMC10175918 (Communications Biology, 2023).
Read-outs that look alike come from different tables or passages of the source.

Tests used:
Experiment in all cases: TGFα-shedding assay-based GPCR screening with chimeric Gα subunit proteins
Assay type in all cases: cell-based
348 GPCRs [1] = molecular target: T1, 348 GPCRs (Homo sapiens, UniProt Q13255); conditions: 10µM, Favipiravir 100μM
T1 construct: expressed in transfected cells; host or cells: HEK293A

348 GPCRs [2] = molecular target: T2, 348 GPCRs (Homo sapiens, UniProt P32247); conditions: 10µM, Favipiravir 100μM
T2 construct: expressed in transfected cells; host or cells: HEK293A
T2 sequence (P32247 1-399): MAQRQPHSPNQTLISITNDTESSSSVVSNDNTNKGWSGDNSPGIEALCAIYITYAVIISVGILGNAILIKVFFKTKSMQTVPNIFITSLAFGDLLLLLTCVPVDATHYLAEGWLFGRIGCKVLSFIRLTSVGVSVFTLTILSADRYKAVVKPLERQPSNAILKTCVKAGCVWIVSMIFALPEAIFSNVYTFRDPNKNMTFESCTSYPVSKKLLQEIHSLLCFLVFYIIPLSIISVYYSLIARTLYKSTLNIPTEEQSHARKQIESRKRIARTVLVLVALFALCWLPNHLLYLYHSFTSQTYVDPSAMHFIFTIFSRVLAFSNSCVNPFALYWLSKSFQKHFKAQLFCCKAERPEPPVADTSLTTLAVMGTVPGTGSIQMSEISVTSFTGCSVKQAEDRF

348 GPCRs [3] = molecular target: 348 GPCRs (Homo sapiens, UniProt P21918); conditions: 10µM, Favipiravir 100μM
Chain of 348 GPCRs (Homo sapiens, UniProt P21918) (P21918 whole entry): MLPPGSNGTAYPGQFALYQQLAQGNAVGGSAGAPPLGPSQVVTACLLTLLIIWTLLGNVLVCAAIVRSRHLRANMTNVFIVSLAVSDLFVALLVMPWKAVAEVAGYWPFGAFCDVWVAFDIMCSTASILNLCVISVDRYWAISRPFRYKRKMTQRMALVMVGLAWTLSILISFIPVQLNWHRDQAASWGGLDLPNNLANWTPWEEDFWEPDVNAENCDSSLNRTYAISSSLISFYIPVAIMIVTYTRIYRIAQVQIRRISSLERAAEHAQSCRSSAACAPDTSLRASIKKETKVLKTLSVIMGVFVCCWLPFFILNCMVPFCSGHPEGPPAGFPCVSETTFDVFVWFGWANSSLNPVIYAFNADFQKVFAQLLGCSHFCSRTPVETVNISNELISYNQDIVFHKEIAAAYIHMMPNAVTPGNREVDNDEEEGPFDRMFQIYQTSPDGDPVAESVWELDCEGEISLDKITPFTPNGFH

348 GPCRs [4] = molecular target: T3, 348 GPCRs (Homo sapiens, UniProt Q9BY21); conditions: 10µM, Favipiravir 100μM
T3 construct: expressed in transfected cells; host or cells: HEK293A
T3 sequence (Q9BY21 whole entry): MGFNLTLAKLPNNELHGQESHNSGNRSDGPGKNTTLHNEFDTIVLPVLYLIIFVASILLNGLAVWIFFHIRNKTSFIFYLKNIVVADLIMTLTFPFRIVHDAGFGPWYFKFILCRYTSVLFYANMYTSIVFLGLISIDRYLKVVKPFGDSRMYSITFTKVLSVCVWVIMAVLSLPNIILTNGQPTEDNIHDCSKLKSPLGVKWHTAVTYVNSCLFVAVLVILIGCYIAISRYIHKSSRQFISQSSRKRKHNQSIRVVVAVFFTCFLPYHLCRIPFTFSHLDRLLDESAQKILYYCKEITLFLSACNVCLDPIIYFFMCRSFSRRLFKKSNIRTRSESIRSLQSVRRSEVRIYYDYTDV

348 GPCRs [5] = molecular target: T4, 348 GPCRs (Homo sapiens, UniProt Q9HBW0); conditions: 10µM, Favipiravir 100μM
T4 construct: expressed in transfected cells; host or cells: HEK293A
T4 sequence (Q9HBW0 whole entry): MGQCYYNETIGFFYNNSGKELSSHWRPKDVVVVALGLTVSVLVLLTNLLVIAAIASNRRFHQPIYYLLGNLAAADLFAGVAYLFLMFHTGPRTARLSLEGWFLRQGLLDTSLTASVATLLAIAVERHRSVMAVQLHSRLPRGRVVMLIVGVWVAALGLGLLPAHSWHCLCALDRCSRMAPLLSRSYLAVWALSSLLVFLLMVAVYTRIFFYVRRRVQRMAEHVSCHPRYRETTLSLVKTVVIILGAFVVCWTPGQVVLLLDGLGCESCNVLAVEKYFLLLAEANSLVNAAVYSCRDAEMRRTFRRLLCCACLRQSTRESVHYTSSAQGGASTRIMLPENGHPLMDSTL

348 GPCRs [6] = molecular target: T5, 348 GPCRs (Homo sapiens, UniProt P33032)
T5 construct: expressed in transfected cells; host or cells: HEK293A
T5 sequence (P33032 whole entry): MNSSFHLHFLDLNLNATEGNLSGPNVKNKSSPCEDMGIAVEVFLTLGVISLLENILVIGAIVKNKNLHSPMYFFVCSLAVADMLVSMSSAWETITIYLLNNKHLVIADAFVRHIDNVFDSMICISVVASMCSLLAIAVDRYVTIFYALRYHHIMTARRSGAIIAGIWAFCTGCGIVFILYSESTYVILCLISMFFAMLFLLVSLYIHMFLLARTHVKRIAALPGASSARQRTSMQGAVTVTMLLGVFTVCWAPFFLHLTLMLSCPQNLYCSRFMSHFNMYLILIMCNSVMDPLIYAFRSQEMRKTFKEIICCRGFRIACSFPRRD

348 GPCRs [7] = molecular target: T6, 348 GPCRs (Homo sapiens, UniProt Q86SM8); conditions: 10µM, Favipiravir 100μM
T6 construct: expressed in transfected cells; host or cells: HEK293A
T6 sequence (Q86SM8 whole entry): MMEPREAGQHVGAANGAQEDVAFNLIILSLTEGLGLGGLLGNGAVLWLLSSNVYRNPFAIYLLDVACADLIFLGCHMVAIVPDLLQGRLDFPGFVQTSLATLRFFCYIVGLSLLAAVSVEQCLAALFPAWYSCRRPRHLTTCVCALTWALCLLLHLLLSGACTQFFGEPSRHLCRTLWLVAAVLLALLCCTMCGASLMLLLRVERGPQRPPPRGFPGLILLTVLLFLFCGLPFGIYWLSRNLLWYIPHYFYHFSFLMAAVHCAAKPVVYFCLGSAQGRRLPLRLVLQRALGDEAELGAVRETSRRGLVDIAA

348 GPCRs [8] = molecular target: T7, 348 GPCRs (Homo sapiens, UniProt P49019); conditions: 10µM, Favipiravir 100μM
T7 construct: expressed in transfected cells; host or cells: HEK293A
T7 sequence (P49019 whole entry): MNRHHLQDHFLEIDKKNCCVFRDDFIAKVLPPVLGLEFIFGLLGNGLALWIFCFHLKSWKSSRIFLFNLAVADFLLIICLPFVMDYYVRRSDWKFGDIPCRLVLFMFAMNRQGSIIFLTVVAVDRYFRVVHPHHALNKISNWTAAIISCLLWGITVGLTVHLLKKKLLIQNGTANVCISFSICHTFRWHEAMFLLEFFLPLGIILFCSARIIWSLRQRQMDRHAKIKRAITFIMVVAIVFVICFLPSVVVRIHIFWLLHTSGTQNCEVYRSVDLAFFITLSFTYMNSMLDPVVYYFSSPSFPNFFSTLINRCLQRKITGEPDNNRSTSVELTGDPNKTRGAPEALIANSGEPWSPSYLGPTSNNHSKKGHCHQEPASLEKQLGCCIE

348 GPCRs [9] = molecular target: T8, 348 GPCRs (Homo sapiens, UniProt P30559)
T8 construct: expressed in transfected cells; host or cells: HEK293A
T8 sequence (P30559 1-389): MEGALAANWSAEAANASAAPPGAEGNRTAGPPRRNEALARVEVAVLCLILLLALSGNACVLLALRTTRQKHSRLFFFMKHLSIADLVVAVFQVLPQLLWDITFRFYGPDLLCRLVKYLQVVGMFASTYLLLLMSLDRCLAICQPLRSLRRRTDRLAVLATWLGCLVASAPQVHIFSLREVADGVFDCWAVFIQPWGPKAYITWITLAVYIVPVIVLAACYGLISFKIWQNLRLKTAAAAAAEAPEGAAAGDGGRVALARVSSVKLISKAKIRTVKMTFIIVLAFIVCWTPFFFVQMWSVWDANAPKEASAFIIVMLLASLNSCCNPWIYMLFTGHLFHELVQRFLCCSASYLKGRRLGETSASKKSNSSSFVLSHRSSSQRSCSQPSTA

348 GPCRs [10] = molecular target: T9, 348 GPCRs (Homo sapiens, UniProt P21917); conditions: 10µM, Favipiravir 100μM
T9 sequence (P21917 1-419): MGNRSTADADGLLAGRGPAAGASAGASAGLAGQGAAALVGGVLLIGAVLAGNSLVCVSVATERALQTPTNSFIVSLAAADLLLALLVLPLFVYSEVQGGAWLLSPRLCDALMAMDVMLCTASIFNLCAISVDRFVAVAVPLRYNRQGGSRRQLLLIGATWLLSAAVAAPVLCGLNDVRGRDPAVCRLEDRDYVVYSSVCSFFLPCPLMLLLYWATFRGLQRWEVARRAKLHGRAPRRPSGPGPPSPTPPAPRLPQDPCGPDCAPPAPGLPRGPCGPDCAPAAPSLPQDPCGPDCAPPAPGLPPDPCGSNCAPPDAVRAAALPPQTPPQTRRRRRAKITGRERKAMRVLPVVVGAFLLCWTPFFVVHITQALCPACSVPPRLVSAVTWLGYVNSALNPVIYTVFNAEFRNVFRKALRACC

[11] = GRM1 (glutamate receptor, metabotropic 1), read-out: % GPCR activation compared to TPA
[12] = BB3 (Bombesin receptor, subtype 3), read-out: % GPCR activation compared to TPA
[13] = D5 (dopamine receptor D5), read-out: % GPCR activation compared to TPA
[14] = GPR87 (G Protein-Coupled Receptor 87), read-out: % GPCR activation compared to TPA
[15] = LPAR2 (lysophosphatidic acid receptor 2), read-out: % GPCR activation compared to TPA
[16] = GPCR MC5R (melanocortin 5 receptor), read-out: % GPCR activation compared to TPA
[17] = MRGE (MAS-related GPR, member E), read-out: % GPCR activation compared to TPA
[18] = MRGPRE (MAS-related GPR, member E), read-out: % GPCR activation compared to TPA
[19] = HCA3 (hydroxycarboxylic Acid Receptor 3), read-out: % GPCR activation compared to TPA
[20] = GPCR OXTR (oxytocin Receptor), read-out: % GPCR activation compared to TPA
[21] = D4 (dopamine receptor D4), read-out: % GPCR activation compared to TPA
[22] = read-out: % GPCR activation compared to TPA, GRM1 (glutamate receptor, metabotropic 1)
[23] = read-out: % GPCR activation compared to TPA, BB3 (Bombesin receptor, subtype 3)
[24] = read-out: % GPCR activation compared to TPA, D5 (dopamine receptor D5)
[25] = read-out: % GPCR activation compared to TPA, GPR87 (G Protein-Coupled Receptor 87)
[26] = read-out: % GPCR activation compared to TPA, LPAR2 (lysophosphatidic acid receptor 2)
[27] = read-out: % GPCR activation compared to TPA, GPCR MC5R (melanocortin 5 receptor)
[28] = read-out: % GPCR activation compared to TPA, MRGE (MAS-related GPR, member E)
[29] = read-out: % GPCR activation compared to TPA, MRGPRE (MAS-related GPR, member E)
[30] = read-out: % GPCR activation compared to TPA, HCA3 (hydroxycarboxylic Acid Receptor 3)
[31] = read-out: % GPCR activation compared to TPA, GPCR OXTR (oxytocin Receptor)
[32] = read-out: % GPCR activation compared to TPA, D4 (dopamine receptor D4)

T1 sequence (Q13255 19-1194): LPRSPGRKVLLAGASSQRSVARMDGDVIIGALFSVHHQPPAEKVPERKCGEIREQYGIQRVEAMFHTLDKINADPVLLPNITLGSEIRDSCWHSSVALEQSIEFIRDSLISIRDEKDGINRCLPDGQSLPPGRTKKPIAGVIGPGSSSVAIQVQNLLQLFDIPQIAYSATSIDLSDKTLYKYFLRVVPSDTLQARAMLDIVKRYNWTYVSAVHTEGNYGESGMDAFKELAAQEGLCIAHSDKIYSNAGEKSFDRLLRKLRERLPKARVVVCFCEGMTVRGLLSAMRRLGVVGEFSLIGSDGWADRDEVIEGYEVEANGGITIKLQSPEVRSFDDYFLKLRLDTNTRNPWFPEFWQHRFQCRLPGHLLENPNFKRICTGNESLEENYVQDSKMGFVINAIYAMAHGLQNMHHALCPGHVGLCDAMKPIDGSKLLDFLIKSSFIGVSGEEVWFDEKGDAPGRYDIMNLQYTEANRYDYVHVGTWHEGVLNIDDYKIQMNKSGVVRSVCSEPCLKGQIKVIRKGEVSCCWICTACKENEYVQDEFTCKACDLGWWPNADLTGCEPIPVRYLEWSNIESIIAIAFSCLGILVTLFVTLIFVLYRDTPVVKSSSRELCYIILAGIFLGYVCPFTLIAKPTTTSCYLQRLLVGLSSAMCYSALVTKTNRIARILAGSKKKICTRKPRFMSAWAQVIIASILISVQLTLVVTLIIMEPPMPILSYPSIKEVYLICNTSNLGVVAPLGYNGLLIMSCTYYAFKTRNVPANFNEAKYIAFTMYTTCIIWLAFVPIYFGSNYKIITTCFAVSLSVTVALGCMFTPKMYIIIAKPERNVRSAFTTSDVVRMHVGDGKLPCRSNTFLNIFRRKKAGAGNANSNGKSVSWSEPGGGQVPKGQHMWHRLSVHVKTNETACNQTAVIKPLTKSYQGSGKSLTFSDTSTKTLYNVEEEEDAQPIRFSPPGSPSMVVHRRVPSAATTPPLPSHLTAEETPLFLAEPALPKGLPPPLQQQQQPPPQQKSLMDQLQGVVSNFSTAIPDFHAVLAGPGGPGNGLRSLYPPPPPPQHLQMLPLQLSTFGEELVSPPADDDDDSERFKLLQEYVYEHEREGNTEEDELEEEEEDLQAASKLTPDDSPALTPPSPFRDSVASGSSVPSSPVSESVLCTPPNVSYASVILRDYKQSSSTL

Row | activation at 10 µM (348 GPCRs [1]; [11]) | activation at 10 µM (348 GPCRs [2]; [12]) | activation at 100 µM (348 GPCRs [3]; [13]) | activation at 100 µM (348 GPCRs [4]; [14]) | activation at 10 µM (348 GPCRs [5]; [15]) | activation at 10 µM (348 GPCRs [6]; [16]) | activation at 100 µM (348 GPCRs [7]; [17]) | activation at 100 µM (348 GPCRs [7]; [18]) | activation at 100 µM (348 GPCRs [8]; [19]) | activation at 10 µM (348 GPCRs [9]; [20]) | activation at 100 µM (348 GPCRs [10]; [21]) | Compound | activation at 10 µM (348 GPCRs [1]; [22]) | activation at 10 µM (348 GPCRs [2]; [23]) | activation at 100 µM (348 GPCRs [3]; [24]) | activation at 100 µM (348 GPCRs [4]; [25]) | activation at 10 µM (348 GPCRs [5]; [26]) | activation at 10 µM (348 GPCRs [6]; [27]) | activation at 100 µM (348 GPCRs [7]; [28]) | activation at 100 µM (348 GPCRs [7]; [29]) | activation at 100 µM (348 GPCRs [8]; [30]) | other results
1 | -0.549% | 1.72% | 1.11% | -3.93% | -0.123% | 0.908% | -0.92% | -0.879% | -0.178% | -1.2% | 3.32% | N#C[C@@]1(c2ccc3c(N)ncnn23)O[C@H](CO)[C@@H](O)[C@H]1O [GS441524] |  |  |  |  |  |  |  |  |  | 
2 | -0.946% | -0.00483% | 3.39% | -4.67% | 1.47% |  | -2.09% | -1.34% | 0.282% |  | 2.6% | NC(=O)c1nc(F)cnc1O [favipiravir, 6-fluoro-3-hydroxy-2-pyrazinecarboxamide] |  |  |  |  |  |  |  |  |  | activation at 100 µM (348 GPCRs [6]; GPCR MC5R (melanocortin 5 receptor), 100μM, read-out: % GPCR activation compared to TPA): -0.921%; activation at 100 µM (348 GPCRs [9]; GPCR OXTR (oxytocin Receptor), 100μM, read-out: % GPCR activation compared to TPA): -0.726%
3 | -0.761% | 0.338% | -1.18% | 0.11% | 2.59% | -1.47% | -1.17% | -1.32% | -2.64% | -2.8% | -1.43% | CC(C)C(=O)OC[C@H]1O[C@@H](n2ccc(NO)nc2=O)[C@H](O)[C@@H]1O [molnupiravir] |  |  |  |  |  |  |  |  |  | 
4 |  |  |  |  |  |  |  |  |  |  |  | CCC(CC)COC(=O)[C@H](C)N[P@](=O)(OC[C@H]1O[C@@](C#N)(c2ccc3c(N)ncnn23)[C@H](O)[C@@H]1O)Oc1ccccc1 [remdesivir] | -0.568% | 2.03% | 7.06% | -0.159% | 1.11% | 1.31% | -2.75% | -1.08% | -1.75% | activation at 10 µM (348 GPCRs [9]; [31]): 0.33%; activation at 100 µM (348 GPCRs [10]; [32]): 4.84%
5 |  |  |  |  |  |  |  |  |  |  |  | CC(C)OC(=O)[C@H](C)N[P@](=O)(OC[C@H]1O[C@@H](n2ccc(=O)[nH]c2=O)[C@](C)(F)[C@@H]1O)Oc1ccccc1 [sofosbuvir] | 0.735% | 7.68% | -1.22% | 2.98% | 2.99% | -2.87% | -1.05% | 0.355% | -2.7% | activation at 10 µM (348 GPCRs [9]; [31]): -3.36%; activation at 100 µM (348 GPCRs [10]; [32]): -2.21%
